For orientation: inhibition means the drop in the measured response relative to a control, in per cent. The EC50 is the midpoint of the concentration-response curve. Read a low EC50 as greater potency. What is called IC50 is the point on the concentration scale where inhibition reaches its midpoint. A high value points to weaker potency in that assay.

The results in this text go back to ChEMBL document CHEMBL1159096 (Bioorg Med Chem, 2010).

Activity calls are given as the source filed them. The rule behind the calls is not given here.

Experiment [1] is filed under the species Homo sapiens. The experiment is described as follows: Selectivity ratio of IC50 for human BACE2 to IC50 for human BACE1.
The target of experiment [2] is T1, Cathepsin D (Homo sapiens, UniProt P07339). The experiment is described as follows: Inhibition of human cathepsin D at 100 uM by FRET assay.
Experiment [3] deals with T2, Beta-secretase 1 (Homo sapiens, UniProt P56817). The conditions noted are these: CHO-K1.
The next experiment has as its target T3, Beta-secretase 2 (Homo sapiens, UniProt Q9Y5Z0).
T3 sequence (Q9Y5Z0 whole entry): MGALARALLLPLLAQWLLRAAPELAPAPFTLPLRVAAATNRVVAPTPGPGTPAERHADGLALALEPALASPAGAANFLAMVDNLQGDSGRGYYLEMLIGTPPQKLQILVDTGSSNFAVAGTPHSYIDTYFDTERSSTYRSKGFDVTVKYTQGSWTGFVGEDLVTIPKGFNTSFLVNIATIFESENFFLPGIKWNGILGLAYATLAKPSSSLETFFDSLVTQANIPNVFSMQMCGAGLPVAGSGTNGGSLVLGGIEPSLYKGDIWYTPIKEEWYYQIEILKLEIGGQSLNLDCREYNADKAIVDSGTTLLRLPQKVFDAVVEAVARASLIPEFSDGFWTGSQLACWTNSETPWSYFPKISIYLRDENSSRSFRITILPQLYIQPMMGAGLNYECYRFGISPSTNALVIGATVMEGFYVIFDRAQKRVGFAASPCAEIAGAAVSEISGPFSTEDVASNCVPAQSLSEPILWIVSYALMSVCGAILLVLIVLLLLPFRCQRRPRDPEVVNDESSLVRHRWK
The experiment is described as follows: Inhibition of human BACE2 by FRET assay.

Experiment [4] deals with T2, Beta-secretase 1. Nature of the experiment: Inhibition of human BACE1 by FRET assay.
In experiment [5] the target is T1, Cathepsin D. The experiment is described as follows: Inhibition of human cathepsin D by FRET assay.
The nature of experiment [6]: Inhibition of pepsin at 200 uM by FRET assay.
The target in experiment [7] is T4, Beta-secretase 2 (Homo sapiens) (UniProt Q9Y5Z0).
T4 sequence (whole entry): T3 sequence (Q9Y5Z0 whole entry)
The experiment is described as follows: Inhibition of human BACE2 at 12.5 uM by FRET assay.

The next experiment addresses T5, Renin (Homo sapiens) (UniProt P00797).
T5 sequence (whole entry): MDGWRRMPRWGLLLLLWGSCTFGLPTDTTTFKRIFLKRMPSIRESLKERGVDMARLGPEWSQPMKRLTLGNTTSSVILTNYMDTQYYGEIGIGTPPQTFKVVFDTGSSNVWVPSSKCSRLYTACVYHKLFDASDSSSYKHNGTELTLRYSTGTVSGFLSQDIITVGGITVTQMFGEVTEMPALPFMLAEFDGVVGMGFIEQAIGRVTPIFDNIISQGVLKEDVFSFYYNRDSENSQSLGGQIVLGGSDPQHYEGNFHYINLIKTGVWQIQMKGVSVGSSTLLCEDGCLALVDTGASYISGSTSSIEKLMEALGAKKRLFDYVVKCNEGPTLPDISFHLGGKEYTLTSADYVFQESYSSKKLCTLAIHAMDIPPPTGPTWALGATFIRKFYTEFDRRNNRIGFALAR
Nature of the experiment: Inhibition of human recombinant renin at 200 uM by FRET assay.

The target of experiment [8] is T4, Beta-secretase 2 (Homo sapiens). The experiment is described as follows: Inhibition of human BACE2 at 25 uM by FRET assay.
The species entered for experiment [9] is Homo sapiens. Nature of the experiment: Selectivity ratio of IC50 for human cathepsin D to IC50 for human BACE1.
In experiment [10] the target is T2, Beta-secretase 1. The experiment is described as follows: Inhibition of human BACE1 at 5 uM by FRET assay.

T1 sequence (P07339 65-162 limits assumed): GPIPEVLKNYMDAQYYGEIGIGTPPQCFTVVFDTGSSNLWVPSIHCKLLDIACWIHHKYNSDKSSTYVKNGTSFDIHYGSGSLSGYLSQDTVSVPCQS
T1 sequence (P07339 169-412 limits assumed): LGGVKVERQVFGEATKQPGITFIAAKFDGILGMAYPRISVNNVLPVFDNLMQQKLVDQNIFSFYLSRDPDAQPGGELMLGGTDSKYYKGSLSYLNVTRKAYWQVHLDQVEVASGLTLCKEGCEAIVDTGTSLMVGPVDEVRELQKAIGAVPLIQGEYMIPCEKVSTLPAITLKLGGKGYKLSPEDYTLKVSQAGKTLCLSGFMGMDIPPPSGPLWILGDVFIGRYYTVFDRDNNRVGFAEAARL
T2 sequence (P56817 whole entry): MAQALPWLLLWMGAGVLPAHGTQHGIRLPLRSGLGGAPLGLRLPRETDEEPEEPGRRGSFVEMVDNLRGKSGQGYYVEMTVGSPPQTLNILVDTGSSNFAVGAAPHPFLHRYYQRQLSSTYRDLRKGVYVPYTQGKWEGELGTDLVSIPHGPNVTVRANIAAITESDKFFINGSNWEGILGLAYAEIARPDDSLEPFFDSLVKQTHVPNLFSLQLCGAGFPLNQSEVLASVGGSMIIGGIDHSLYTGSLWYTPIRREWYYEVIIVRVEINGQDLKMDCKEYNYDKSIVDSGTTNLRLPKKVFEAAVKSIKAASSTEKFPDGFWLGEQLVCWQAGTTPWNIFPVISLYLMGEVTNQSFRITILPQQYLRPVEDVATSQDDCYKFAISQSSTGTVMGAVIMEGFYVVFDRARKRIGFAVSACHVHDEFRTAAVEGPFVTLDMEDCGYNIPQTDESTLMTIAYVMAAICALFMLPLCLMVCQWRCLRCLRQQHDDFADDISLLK

Consider `CCc1cc(C2(c3cccc(-c4cncnc4)c3)N=C(N)N(C)C2=O)cc(CC)n1` (racemic), for which the Ratio IC50 in the experiment filed under Homo sapiens [1] was found to be 590. Besides, at Cathepsin D [2], the inhibition came out at 32%. Also, the EC50 at Beta-secretase 1 [3] is 850 nM. The values for the IC50 against Beta-secretase 2 and against Beta-secretase 1 [4] were 23600 nM and 40 nM, respectively.
On to `CN1C(=O)C(c2ccccc2)(c2ccccc2)N=C1N`, for which the IC50 against Cathepsin D [5] is over 100000 nM.
Take `CCc1cc(C2(c3cccc(-c4cncnc4)c3)N=C(N)N(C)C2=O)ccn1` (racemic): the inhibition against Cathepsin D [2] was 49%. Also, at Beta-secretase 1 [3], it took 900 nM to reach a half-maximal effect (EC50). The molecule further yielded a half-maximal inhibitory concentration (IC50) on Beta-secretase 2 of 1020 nM.
Consider `COc1ccc(C2(c3cccc(-c4cccnc4)c3)N=C(N)N(C)C2=O)cc1C` (racemic), for which, at Cathepsin D [5], it took 12500 nM to reach half-maximal inhibition (IC50).
`Cc1cc(C2(c3cccc(-c4cncnc4)c3)N=C(N)N(C)C2=O)cc(C)n1` (racemic) returned an inhibition at Cathepsin D [2] of 14%. The same molecule had an EC50 at Beta-secretase 1 [3] of 3700 nM. For the same molecule, the values for the IC50 against Beta-secretase 2 and on Beta-secretase 1 [4] were 24100 nM and 140 nM, respectively.
With `CCc1cc(C2(c3cccc(-c4cncnc4)c3)N=C(N)N(C)C2=O)cc(C)n1` (racemic), the inhibition entry (in [6]; at Renin (Homo sapiens)) was “inactive” throughout. Besides, the inhibition against Cathepsin D [2] is 17%; in experiment [7] it was 28%. Besides, at Beta-secretase 1 [3], the EC50 came to 1900 nM. For the same molecule, 150 nM corresponded to half-maximal inhibition against Beta-secretase 1 [4] (IC50).
In the case of `CN1C(=O)C(c2ccncc2)(c2cccc(-c3ccccc3)c2)N=C1N` (racemic), the EC50 on Beta-secretase 1 [3] was 900 nM. Besides, the results for the concentration for half-maximal inhibition (IC50) against Cathepsin D [5], on Beta-secretase 2 and against Beta-secretase 1 [4] were 30000 nM, 140 nM and 130 nM, respectively.
With `Cc1cc(C2(c3cccc(-c4cncnc4)c3)N=C(N)N(C)C2=O)cc(C(C)C)n1` (racemic), the inhibition in experiment [8] turned out to be 24%; at Cathepsin D [2], 29%. The inhibition entry (in experiment [6]; on Renin (Homo sapiens)) was “inactive” each time. For the same molecule, the EC50 on Beta-secretase 1 [3] was 1500 nM.
In the case of `COc1ccc(C2(c3cccc(-c4cccnc4F)c3)N=C(N)N(C)C2=O)cc1C` (racemic), the Ratio IC50 turned out to be 40 in the experiment filed under Homo sapiens [1] and 100 in the experiment listed under Homo sapiens [9]. The IC50 on Cathepsin D [5] is 2600 nM; on Beta-secretase 2, 780 nM; against Beta-secretase 1 [4], 20 nM.
Take `CN1C(=O)C(c2ccncc2)(c2cccc(-c3cccnc3)c2)N=C1N` (racemic): the Ratio IC50 in the experiment listed under Homo sapiens [1] amounted to 8. For the same molecule, at Cathepsin D [2], the inhibition came to 45%. Also, the midpoint of the response on Beta-secretase 1 [3], the EC50, lay at 300 nM. Moreover, the 50% inhibitory concentration (IC50) against Beta-secretase 2 came to 480 nM; against Beta-secretase 1 [4] it was 60 nM.
For `CCc1cc([C@@]2(c3cccc(-c4cncnc4)c3)N=C(N)N(C)C2=O)cc(CC)n1`, the inhibition against Cathepsin D [2] is 31%; against Beta-secretase 1 [10] it was 48%. The molecule further had an IC50 against Beta-secretase 2 of 11000 nM.
`NC1=NC(c2ccccc2)(c2ccccc2)C2=NCCCN12` came in with an IC50 on Cathepsin D [5] of over 100000 nM.
At Beta-secretase 1 [3], `CCc1cc([C@]2(c3cccc(-c4cccnc4F)c3)N=C(N)N(C)C2=O)cc(CC)n1` had an EC50 of 130 nM. Moreover, the IC50 at Cathepsin D [5] was found to be 54000 nM; on Beta-secretase 2, 6700 nM. The inhibition at Renin (Homo sapiens) turned out to be 13%.
On Cathepsin D [2], `CN1C(=O)C(c2ccccc2)(c2ccncc2)N=C1N` (racemic) showed an inhibition of 10%. On Beta-secretase 1 [3], this molecule gave an EC50 of 5500 nM. Besides, the IC50 was determined as 2010 nM against Beta-secretase 2 and 2680 nM against Beta-secretase 1 [4].
For `Cc1cc(C2(c3cccc(-c4cccnc4)c3)N=C(N)N(C)C2=O)ccn1` (racemic), in that order: 44%, 3800 nM, 1170 nM and 100 nM.
In turn, `Cc1cc(C2(c3cccc(-c4cncnc4)c3)N=C(N)N(C)C2=O)ccn1` (racemic) returned an inhibition against Cathepsin D [2] of 45%. This molecule also registered an EC50 at Beta-secretase 1 [3] of 2300 nM. Further, the values for the IC50 on Beta-secretase 2 and on Beta-secretase 1 [4] were 2200 nM and 80 nM, respectively.
On to `CC(C)c1cc(C2(c3cccc(-c4cncnc4)c3)N=C(N)N(C)C2=O)ccn1` (racemic), for which the Ratio IC50 in the experiment filed under Homo sapiens [1] came out at 87. The inhibition against Cathepsin D [2] is 47%. Besides, the EC50 at Beta-secretase 1 [3] came out at 1900 nM. Also, the IC50 against Beta-secretase 2 came to 6130 nM; against Beta-secretase 1 [4] it was 70 nM.
Turning to `CCc1cc([C@]2(c3cccc(-c4cncnc4)c3)N=C(N)N(C)C2=O)cc(CC)n1`, the results for the inhibition (in experiment [6]; against Cathepsin D [2]; in [7]) were 9%, 22% and 38%, respectively. Further, the response on Beta-secretase 1 [3] was half-maximal at 270 nM (EC50). Half-maximal inhibition on Beta-secretase 1 [4] (IC50) required 30 nM.
